According to patent US20200341000A1, “METHOD OF SCREENING COMPOUNDS FOR TREATING CNS DISORDERS” (SAGE THERAPEUTICS, INC., priority 2017, published 2020):
“Also recorded” adds a separate entry of the source.

Experiments:
[1] = tested on: GT1-7 cells (co-express mPRα and GABAARs), β3 S408/9 phosphorylation; assay: Immunoblot of β3 S408/9 phosphorylation in GT1-7 cells; format: cell-based; details: 100 nM, 15 min; n=6
Procedure: GT1-7 cells that co-express mPRα and GABAARs were used to measure the level of phosphorylation at S408/9 position of β3 subunit. Quantitative PCR analysis indicated the enrichment of the mPRα mRNA in GT1-7 cells (FIG. 15A upper, figure taken from Thomas and Pang 2012). Expression of mPRα was confirmed using western blotting. 10 and 15 μg of SDS-soluble extracts from GT1-7 cells were immunoblotted with an mPRα specific antibody (FIG. 15A lower).
GT1-7 cells were treated with 100 nM AllO or P4 for 15 min and immunoblotted with antibodies specifically recognizing β3, actin, and […] β3 subunit (pS408/9). The ratio of pS408/9 β3 subunit immunoreactivity were then normalized to levels seen in vehicle treated to controls, n=6.

[2] = tested on: tonic current in dentate gyms granule cells (DGGCs); assay: Sustained (metabotropic) enhancement of tonic current in DGGCs after 15 min exposure and washout; format: cell-based, mice; details: protocol as in FIG. 3; n=6-8 cells
Procedure: Brain slices were prepared from 3- to 5-week-old male C57 mice. Mice were anesthetized with isoflurane, decapitated, and brains were rapidly removed and submerged in ice-cold cutting solution containing (mM): 126 NaCl, 2.5 KCl, 0.5 CaCl2, 2 MgCl2, 26 NaHCO3, 1.25 NaH2PO4, 10 glucose, 1.5 sodium pyruvate, and 3 kynurenic acid. Coronal 310 μm thick slices were cut with the vibratome VT1000S (Leica Microsystems, St Louis, Mo., USA). The slices were then transferred into incubation chamber filled with prewarmed (31-32° C.) oxygenated artificial cerebro-spinal fluid (ACSF) of the following composition (in mM): 126 NaCl, 2.5 KCl, 2 CaCl2, 2 MgCl2, 26 NaHCO3, 1.25 NaH2PO4, 10 glucose, 1.5 sodium pyruvate, 1 glutamine, 3 kynurenic acid and 0.005 GABA bubbled with 95% O2-5% CO2. Slices were allowed to recover at 32° C. for at least 1 hr before recording. Exogenous GABA was added in an attempt to standardize ambient GABA in the slice and provide an agonist source for newly inserted extrasynaptic GABAARs.
After recovery, a single slice was transferred to a submerged, dual perfusion recording chamber (Warner Instruments, Hamden, Conn., USA) on the stage of an upright microscope (Nikon FN-1) with a 40× water immersion objective equipped with DIC/IR optics. Slices were maintained at 32° C. and gravity-superfused with ACSF solution throughout experimentation and perfused at rate of 2 ml/min with oxygenated (O2/CO2 95/5%) ACSF.
Whole-cell currents were recorded from the dentate gyms granule cells (DGGCs) in 310-μm-thick coronal hippocampal slices. Patch pipettes (5-7MΩ) were pulled from borosilicate glass (World Precision Instruments) and filled with intracellular solution of the composition (in mM) as follows: 140 CsCl, 1 MgCl2, 0.1 EGTA, 10 HEPES, 2 Mg-ATP, 4 NaCl and 0.3 Na-GTP (pH=7.2 with CsOH). A 5 min period for stabilization after obtaining the whole-cell recording conformation (holding potential of −60 mV) was allowed before currents were recorded using an Axopatch 200B amplifier (Molecular Devices), low-pass filtered at 2 kHz, digitized at 20 kHz (Digidata 1440A; Molecular Devices), and stored for offline analysis.
For tonic current measurements, an all-points histogram was plotted for a 10 s period before and during 100 μM picrotoxin application, once the response reached a plateau level. Recordings with unstable baselines were discarded. Fitting the histogram with a Gaussian distribution gave the mean baseline current amplitude and the difference between the amplitudes before and during picrotoxin was considered to be the tonic current. The negative section of the all-points histogram which corresponds to the inward IPSCs was not fitted with a Gaussian distribution (Kretschmannova et al., 2013; Nusser and Mody, 2002). Series resistance and whole-cell capacitance were continually monitored and compensated throughout the course of the experiment. Recordings were eliminated from data analysis if series resistance increased by >20%. Spontaneous inhibitory post-synaptic currents (sIPSCs) were analyzed using the mini-analysis software (version 5.6.4; Synaptosoft, Decatur, Ga.). Minimum threshold detection was set to 3 times the value of baseline noise signal. To assess sIPSC kinetics, the recording trace was visually inspected and only events with a stable baseline, sharp rising phase, and single peak were used to negate artifacts due to event summation. Only recordings with a minimum of 200 events fitting these criteria were analyzed. sIPSCs amplitude, and frequency from each experimental condition was pooled and expressed as mean±SEM. To measure sIPSC decay, 100 consecutive events were averaged and the decay was fitted to a double exponential and the weighted decay constant (tw) was determined. Statistical analysis was performed by using Student t-test (paired and unpaired where appropriate), where p<0.05 is considered significant.

[3] = tested on: GABAA receptor β3 subunit S408/9 phosphorylation; assay: Immunoblot of β3 S408/9 phosphorylation in hippocampal slices; format: cell-based, mice; details: 100 nM
Procedure: Hippocampi were dissected out of acute slices from 8 to 12 week old C57/B16 mice and lysed with phosphate buffer including: 20 mM Tris-HCl, 150 mM NaCl, 5 mM EDTA, 10 mM NaF, 2 mM Na3VO4, 10 mM pyrophosphate, 0.1% SDS and 1% Triton after drug treatment. The β3 subunit was isolated using immunoprecipitation with β3 antibodies, after correction for protein content and the specific activity of labeling. Results were attained by SDS/PAGE followed by autoradiography (Abramian et al., 2010). For biotinylation experiments hippocampi were dissected out of acute slices from 8 to 12 week old C57/B16 mice and incubated in artificial cerebrospinal fluid (ACSF) described above at 30° C. for 1 h for recovery before experimentation. Slices were then placed on ice and incubated for 30 min with 1 mg/mL NHS-SS-biotin (Pierce). Excess biotin was removed by a 50 mM glycine quenching buffer, followed by washing of slices three times in ice-cold ACSF. The tissue was snap frozen on dry ice for 5 min, thawed at 4° C. and lysed. The lysates were solubilized with 2% Triton at 4° C. on a rotating wheel for 1 h. The insoluble material was removed by centrifugation, and 350-500 μg of protein lysate were incubated with NeutrAvidin beads (Pierce) for 18-24 h at 4° C. Bound material was eluted with sample buffer and subjected to SDS/PAGE and then immunoblotted with the indicated antibodies. Blots were then quantified using the CCD-based ChemiDoc XRS ? system. Antibodies against the β3 subunit and the phospho-β3 antibody were generated and verified by the laboratory of S.J.M. (Vien et al., 2015).
To produce antibodies specific for phosphorylated S443, rabbits were injected with a synthetic peptide corresponding to residues […] of the murine α4 subunit in which the serine residue corresponding to S443 was chemically phosphorylated; […]. Hippocampal slices were treated with vehicle (Con), or SGE-516 for 20 min. Slices were immunoblotted with pS408/9, β3, or actin antibodies. The ratio of pS408/9/β3 immunoreactivity was then normalized to control slices (100%=the line).
Hippocampal slices were treated with 100 nM ALLO or P4 (progesterone), and S408/9 phosphorylation was then determined as detailed above, n=4 slices (FIG. 18D). Hippocampal slices were treated with 100 nM ORG (FIG. 18E). S408/9 phosphorylation was examined using immunoblotting.

SMILES: CC(=O)[C@H]1CC[C@H]2[C@@H]3CCC4=CC(=O)CC[C@]4(C)[C@H]3CC[C@]12C [P4, Progesterone]
- S408/9 phosphorylation (pS408/9/β3) in GT1-7 cells [1]: increase
- amplitude and density of GABAergic tonic current at varying doses [2]: dosage-dependent effect; also recorded: dosage dependent effect
- S408/9 phosphorylation in hippocampal slices [3]: regulated
